{"source": "patent US9724304B2", "about": "“Nanospheres for therapeutic agent delivery” (Temple University—Of The Commonwealth System of Higher …, priority 2012, dated 2017)", "origin": "cited, not measured here", "conditions": "at 25° C."}
{"smiles": "CC1=C(/C=C/C(C)=C/C=C/C(C)=C/C(=O)O)C(C)(C)CCC1", "note": "[ATRA, All-trans retinoic acid]", "values": [{"measurement": "aqueous solubility", "value": 29, "unit": "µg/mL"}]}
